According to patent US9000025B2, “Autotaxin inhibitors and uses thereof” (Amira Pharmaceuticals, Inc., priority 2010, dated 2015):

Target: T1, autotaxin (ATX) (Homo sapiens, UniProt Q13822)
T1 construct: conditioned medium from the human melanoma cell line, MDA-MB-4355, which endogenously expresses autotaxin; host or cells: MDA-MB-435S human melanoma cells; serum-free conditioned medium, concentrated 20-fold
Test: Native Autotaxin Choline Release Assay
Type: biochemical
Conditions: autotaxin in conditioned medium from human melanoma cell line; choline released from LPC; read-out: MDA-MB-435S Assay IC50
In short: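 Native ATX from conditioned serum-free, phenol-red-free DMEM of confluent cells cultured 48 h; LPC as substrate. Released choline detected with choline oxidase/peroxidase/4-aminoantipyrine colour mix in 50 mM Tris pH 8, 10 min at 37 °C, absorbance 555 nm; choline quantified against standard curve, equated to LPA formed.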

SMILES | IC50 [nM]
CCCn1cc(-n2c(C)c(Sc3ccc(OC)c(C(=O)O)c3)c3ccc(Cl)c(F)c32)cn1 [Compound 4-10, 5-[6-Chloro-7-fluoro-2-methyl-1-(1-propyl-1H-pyrazol-4-yl)-1H-indol-3-ylsulfanyl]-2-methoxy-benzoic acid] | < 300
CCn1cc(-n2c(C)c(Sc3cccc(C(=O)O)c3F)c3c(F)cc(Cl)cc32)cn1 [Compound 4-11, 3-[6-Chloro-1-(1-ethyl-1H-pyrazol-4-yl)-4-fluoro-2-methyl-1H-indol-3-ylsulfanyl]-2-fluoro-benzoic acid] | < 300
CCCn1cc(-n2c(C)c(Sc3cccc(CC(=O)O)c3F)c3ccc(Cl)c(F)c32)cn1 [Compound 4-12, {3-[6-Chloro-7-fluoro-2-methyl-1-(1-propyl-1H-pyrazol-4-yl)-1H-indol-3-ylsulfanyl]-2-fluoro-phenyl}-acetic acid] | < 300
CCCn1cc(-n2c(C)c(Sc3ccc(C)c(C(=O)O)c3)c3ccc(Cl)c(F)c32)cn1 [Compound 4-13, 5-[6-Chloro-1-(1-propyl-1H-pyrazol-4-yl)-7-fluoro-2-methyl-1H-indol-3-ylsulfanyl]-2-methyl-benzoic acid] | < 300
CCCn1cc(-n2c(C)c(Sc3ccc(C(F)(F)F)c(CC(=O)O)c3)c3ccc(Cl)c(F)c32)cn1 [Compound 4-14, {5-[6-Chloro-7-fluoro-2-methyl-1-(1-propyl-1H-pyrazol-4-yl)-1H-indol-3-ylsulfanyl]-2-trifluoromethyl-phenyl}-acetic acid] | < 300
CCn1cc(-n2c(C)c(Sc3cccc(CC(=O)O)c3F)c3ccc(Cl)c(F)c32)cn1 [Compound 4-15, {3-[6-Chloro-1-(1-ethyl-1H-pyrazol-4-yl)-7-fluoro-2-methyl-1H-indol-3-ylsulfanyl]-2-fluoro-phenyl}-acetic acid] | < 300

Further lines, results first:

IC50 [nM] | SMILES
< 300 | CCn1cc(-n2c(C)c(Sc3cccc(C(=O)O)c3F)c3ccc(Cl)c(F)c32)cn1 [Compound 4-3, 3-[6-Chloro-1-(1-ethyl-1H-pyrazol-4-yl)-7-fluoro-2-methyl-1H-indol-3-ylsulfanyl]-2-fluoro-benzoic acid]
< 300 | CCCn1cc(-n2c(C)c(Sc3cccc(C(=O)O)c3F)c3ccc(Cl)c(F)c32)cn1 [Compound 4-4, 3-[6-Chloro-7-fluoro-2-methyl-1-(1-propyl-1H-pyrazol-4-yl)-1H-indol-3-ylsulfanyl]-2-fluoro-benzoic acid]
< 300 | CCCn1cc(-n2c(C)c(Sc3cc(F)cc(C(=O)O)c3)c3ccc(Cl)c(F)c32)cn1 [Compound 4-5, 3-[6-Chloro-7-fluoro-2-methyl-1-(1-propyl-1H-pyrazol-4-yl)-1H-indol-3-ylsulfanyl]-5-fluoro-benzoic acid]
< 300 | Cc1c(Sc2cc(F)cc(C(=O)O)c2)c2ccc(Cl)c(F)c2n1-c1cnn(C(C)C)c1 [Compound 4-6, 3-[6-Chloro-7-fluoro-1-(1-isopropyl-1H-pyrazol-4-yl)-2-methyl-1H-indol-3-ylsulfanyl]-5-fluoro-benzoic acid]
< 300 | CCn1cc(-n2c(C)c(Sc3cccc(C(=O)NS(=O)(=O)c4ccccc4)c3F)c3ccc(Cl)c(F)c32)cn1 [Compound 4-7, N-{3-[6-Chloro-1-(1-ethyl-1H-pyrazol-4-yl)-7-fluoro-2-methyl-1H-indol-3-ylsulfanyl]-2-fluoro-benzoyl}-benzenesulfonamide]
< 300 | CCCn1cc(-n2c(C)c(Sc3cccc(C(=O)NS(=O)(=O)c4ccccc4)c3F)c3ccc(Cl)c(F)c32)cn1 [Compound 4-8, N-{3-[6-Chloro-1-(1-propyl-1H-pyrazol-4-yl)-7-fluoro-2-methyl-1H-indol-3-ylsulfanyl]-2-fluoro-benzoyl}-benzenesulfonamide]
< 300 | CCn1cc(-n2c(C)c(Sc3ccc(C)c(C(=O)O)c3)c3ccc(Cl)c(F)c32)cn1 [Compound 4-9, 5-[6-Chloro-1-(1-ethyl-1H-pyrazol-4-yl)-7-fluoro-2-methyl-1H-indol-3-ylsulfanyl]-2-methyl-benzoic acid]
